Source: ChEMBL document CHEMBL5678818, “Discovery of potent SOS1 inhibitors that block RAS activation via disruption of the RAS-SOS1 interaction” (Proc Natl Acad Sci U S A, 2019)

Experiments:
[1] = species on record: Homo sapiens; test: Inhibition of N-terminal GST-tagged recombinant human SOS1 N879V mutant (564 to 1049 residues) expressed in Escherichia coli assessed as reduction in KRAS G12C mutant activation at 10 uM by HTRF analysis relative to control
[2] = species on record: Homo sapiens; test: Inhibition of N-terminal GST-tagged recombinant human SOS1 H905A mutant (564 to 1049 residues) expressed in Escherichia coli assessed as reduction in KRAS G12C mutant activation at 10 uM by HTRF analysis relative to control
[3] = species on record: Homo sapiens; test: Inhibition of ACVR1 (unknown origin) assessed as residual activity at 100 nM by KINOMEscan analysis relative to control
[4] = test system: ALK tyrosine kinase receptor (Homo sapiens), Q9UM73 [L1196M]; test: Inhibition of ALK L1196M mutant (unknown origin) assessed as residual activity at 100 nM by KINOMEscan analysis relative to control
[5] = biological target: Cyclin-dependent kinase 13 (Homo sapiens) (UniProt Q14004); test: Inhibition of CDC2L5 (unknown origin) assessed as residual activity at 100 nM by KINOMEscan analysis relative to control
[6] = biological target: T1, Ephrin type-A receptor 8 (Homo sapiens) (UniProt P29322); test: Inhibition of EPHA8 (unknown origin) assessed as residual activity at 100 nM by KINOMEscan analysis relative to control
T1 sequence (whole entry): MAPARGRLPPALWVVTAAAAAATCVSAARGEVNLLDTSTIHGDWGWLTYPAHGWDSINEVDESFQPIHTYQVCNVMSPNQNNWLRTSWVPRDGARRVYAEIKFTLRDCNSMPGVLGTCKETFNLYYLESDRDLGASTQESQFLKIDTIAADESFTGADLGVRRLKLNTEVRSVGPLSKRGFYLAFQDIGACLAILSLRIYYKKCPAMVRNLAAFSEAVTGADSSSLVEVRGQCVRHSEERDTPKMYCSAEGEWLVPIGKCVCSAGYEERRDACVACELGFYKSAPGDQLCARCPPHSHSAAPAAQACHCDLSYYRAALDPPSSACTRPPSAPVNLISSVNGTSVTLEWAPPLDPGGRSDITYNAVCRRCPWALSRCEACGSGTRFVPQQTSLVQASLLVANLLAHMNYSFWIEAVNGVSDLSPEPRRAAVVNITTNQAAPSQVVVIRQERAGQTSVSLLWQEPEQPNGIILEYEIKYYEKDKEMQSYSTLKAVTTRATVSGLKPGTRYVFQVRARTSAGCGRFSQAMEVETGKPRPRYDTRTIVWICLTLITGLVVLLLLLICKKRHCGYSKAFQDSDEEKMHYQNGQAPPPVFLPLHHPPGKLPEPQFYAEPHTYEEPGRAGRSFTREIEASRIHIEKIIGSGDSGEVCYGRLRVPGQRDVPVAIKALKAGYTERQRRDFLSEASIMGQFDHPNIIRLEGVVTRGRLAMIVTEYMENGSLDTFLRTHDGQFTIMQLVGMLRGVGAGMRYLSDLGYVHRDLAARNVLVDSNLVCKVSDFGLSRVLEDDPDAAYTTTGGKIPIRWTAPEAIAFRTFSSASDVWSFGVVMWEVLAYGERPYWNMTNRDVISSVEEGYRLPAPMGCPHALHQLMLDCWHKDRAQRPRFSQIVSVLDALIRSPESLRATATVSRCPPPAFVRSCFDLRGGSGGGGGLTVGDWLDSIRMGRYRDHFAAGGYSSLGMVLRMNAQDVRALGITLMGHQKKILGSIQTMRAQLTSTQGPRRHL

[7] = biological target: Fibroblast growth factor receptor 2 (Homo sapiens) (UniProt P21802); test: Inhibition of FGFR2 (unknown origin) assessed as residual activity at 100 nM by KINOMEscan analysis relative to control
[8] = species on record: Homo sapiens; test: Inhibition of JNK3 (unknown origin) assessed as residual activity at 100 nM by KINOMEscan analysis relative to control
[9] = biological target: T2, Serine/threonine-protein kinase TBK1 (Homo sapiens) (UniProt Q9UHD2); test: Inhibition of TBK1 (unknown origin) assessed as residual activity at 100 nM by KINOMEscan analysis relative to control
T2 sequence (whole entry): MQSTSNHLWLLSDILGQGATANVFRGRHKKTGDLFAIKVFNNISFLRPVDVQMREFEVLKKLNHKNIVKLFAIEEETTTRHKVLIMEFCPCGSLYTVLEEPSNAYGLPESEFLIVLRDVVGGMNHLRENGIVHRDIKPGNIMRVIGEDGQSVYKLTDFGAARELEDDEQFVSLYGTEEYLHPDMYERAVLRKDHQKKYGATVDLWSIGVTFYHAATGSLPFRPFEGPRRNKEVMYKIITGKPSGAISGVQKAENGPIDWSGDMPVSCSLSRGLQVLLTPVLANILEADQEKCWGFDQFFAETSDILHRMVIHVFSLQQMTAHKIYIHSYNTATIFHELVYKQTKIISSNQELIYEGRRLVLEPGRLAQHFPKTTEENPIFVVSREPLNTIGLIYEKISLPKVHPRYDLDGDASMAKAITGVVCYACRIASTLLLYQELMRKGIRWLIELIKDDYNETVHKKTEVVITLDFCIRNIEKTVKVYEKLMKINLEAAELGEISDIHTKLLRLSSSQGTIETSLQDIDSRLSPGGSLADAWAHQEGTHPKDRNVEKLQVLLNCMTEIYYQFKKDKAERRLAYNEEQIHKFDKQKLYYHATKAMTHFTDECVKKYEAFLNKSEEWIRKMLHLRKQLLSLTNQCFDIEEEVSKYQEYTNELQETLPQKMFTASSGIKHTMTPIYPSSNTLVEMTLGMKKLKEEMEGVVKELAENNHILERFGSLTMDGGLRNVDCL

[10] = biological target: Serine/threonine-protein kinase 32A (Homo sapiens) (UniProt Q8WU08); test: Inhibition of YANK1 (unknown origin) assessed as residual activity at 100 nM by KINOMEscan analysis relative to control
Chain of Serine/threonine-protein kinase 32A (Homo sapiens) (Q8WU08 whole entry): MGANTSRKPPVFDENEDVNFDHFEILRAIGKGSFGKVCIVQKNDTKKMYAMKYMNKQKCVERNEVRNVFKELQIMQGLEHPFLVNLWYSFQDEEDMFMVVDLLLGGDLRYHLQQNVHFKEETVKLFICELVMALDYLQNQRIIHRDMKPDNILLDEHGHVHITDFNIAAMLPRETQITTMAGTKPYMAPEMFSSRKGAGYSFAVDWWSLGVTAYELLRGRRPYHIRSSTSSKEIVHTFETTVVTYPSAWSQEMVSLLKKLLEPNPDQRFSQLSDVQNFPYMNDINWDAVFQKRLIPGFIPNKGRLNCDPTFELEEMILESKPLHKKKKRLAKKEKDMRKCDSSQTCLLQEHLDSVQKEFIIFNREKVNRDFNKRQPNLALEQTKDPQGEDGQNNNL

Chain of Cyclin-dependent kinase 13 (Homo sapiens) (Q14004 whole entry, looked up): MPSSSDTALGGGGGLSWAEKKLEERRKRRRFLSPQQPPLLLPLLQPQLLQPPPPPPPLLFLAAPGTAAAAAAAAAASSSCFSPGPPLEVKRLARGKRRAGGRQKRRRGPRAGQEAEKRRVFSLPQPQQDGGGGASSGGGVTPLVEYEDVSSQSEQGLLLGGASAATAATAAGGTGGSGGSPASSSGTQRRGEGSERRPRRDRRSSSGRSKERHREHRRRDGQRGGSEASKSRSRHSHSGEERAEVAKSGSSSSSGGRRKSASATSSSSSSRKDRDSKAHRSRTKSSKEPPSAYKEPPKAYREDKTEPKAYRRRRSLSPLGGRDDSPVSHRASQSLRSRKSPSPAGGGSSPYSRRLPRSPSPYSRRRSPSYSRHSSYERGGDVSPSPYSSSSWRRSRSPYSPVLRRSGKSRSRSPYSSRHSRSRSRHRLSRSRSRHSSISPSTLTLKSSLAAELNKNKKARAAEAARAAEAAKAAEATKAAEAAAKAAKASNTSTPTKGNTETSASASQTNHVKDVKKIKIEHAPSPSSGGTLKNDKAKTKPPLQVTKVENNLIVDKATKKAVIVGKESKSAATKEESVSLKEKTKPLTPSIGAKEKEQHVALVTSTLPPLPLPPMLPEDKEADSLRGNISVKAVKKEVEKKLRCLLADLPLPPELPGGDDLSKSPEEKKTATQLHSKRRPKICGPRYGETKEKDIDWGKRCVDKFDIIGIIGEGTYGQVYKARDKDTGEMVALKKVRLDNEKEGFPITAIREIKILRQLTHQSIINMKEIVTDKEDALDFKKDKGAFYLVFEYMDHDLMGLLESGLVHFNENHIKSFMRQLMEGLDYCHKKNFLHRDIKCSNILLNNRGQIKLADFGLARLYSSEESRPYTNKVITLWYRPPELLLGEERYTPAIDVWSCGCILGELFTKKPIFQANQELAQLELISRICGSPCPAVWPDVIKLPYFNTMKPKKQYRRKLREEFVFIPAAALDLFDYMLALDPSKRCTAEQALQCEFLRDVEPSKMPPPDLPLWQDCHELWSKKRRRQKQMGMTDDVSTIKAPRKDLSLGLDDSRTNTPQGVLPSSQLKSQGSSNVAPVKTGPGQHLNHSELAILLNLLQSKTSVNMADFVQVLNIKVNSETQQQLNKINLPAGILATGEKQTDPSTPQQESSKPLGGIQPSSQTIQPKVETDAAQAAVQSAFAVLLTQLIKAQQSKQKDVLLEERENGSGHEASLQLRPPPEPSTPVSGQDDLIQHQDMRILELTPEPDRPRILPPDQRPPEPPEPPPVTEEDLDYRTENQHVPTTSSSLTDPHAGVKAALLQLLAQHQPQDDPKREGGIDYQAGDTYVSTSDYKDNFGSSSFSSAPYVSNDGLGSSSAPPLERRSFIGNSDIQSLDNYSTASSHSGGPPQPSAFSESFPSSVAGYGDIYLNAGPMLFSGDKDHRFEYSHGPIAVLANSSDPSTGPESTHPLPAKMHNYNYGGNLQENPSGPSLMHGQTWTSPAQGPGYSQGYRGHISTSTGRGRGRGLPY
Chain of ALK tyrosine kinase receptor (Homo sapiens), Q9UM73 [L1196M] (Q9UM73 whole entry L1196M, looked up): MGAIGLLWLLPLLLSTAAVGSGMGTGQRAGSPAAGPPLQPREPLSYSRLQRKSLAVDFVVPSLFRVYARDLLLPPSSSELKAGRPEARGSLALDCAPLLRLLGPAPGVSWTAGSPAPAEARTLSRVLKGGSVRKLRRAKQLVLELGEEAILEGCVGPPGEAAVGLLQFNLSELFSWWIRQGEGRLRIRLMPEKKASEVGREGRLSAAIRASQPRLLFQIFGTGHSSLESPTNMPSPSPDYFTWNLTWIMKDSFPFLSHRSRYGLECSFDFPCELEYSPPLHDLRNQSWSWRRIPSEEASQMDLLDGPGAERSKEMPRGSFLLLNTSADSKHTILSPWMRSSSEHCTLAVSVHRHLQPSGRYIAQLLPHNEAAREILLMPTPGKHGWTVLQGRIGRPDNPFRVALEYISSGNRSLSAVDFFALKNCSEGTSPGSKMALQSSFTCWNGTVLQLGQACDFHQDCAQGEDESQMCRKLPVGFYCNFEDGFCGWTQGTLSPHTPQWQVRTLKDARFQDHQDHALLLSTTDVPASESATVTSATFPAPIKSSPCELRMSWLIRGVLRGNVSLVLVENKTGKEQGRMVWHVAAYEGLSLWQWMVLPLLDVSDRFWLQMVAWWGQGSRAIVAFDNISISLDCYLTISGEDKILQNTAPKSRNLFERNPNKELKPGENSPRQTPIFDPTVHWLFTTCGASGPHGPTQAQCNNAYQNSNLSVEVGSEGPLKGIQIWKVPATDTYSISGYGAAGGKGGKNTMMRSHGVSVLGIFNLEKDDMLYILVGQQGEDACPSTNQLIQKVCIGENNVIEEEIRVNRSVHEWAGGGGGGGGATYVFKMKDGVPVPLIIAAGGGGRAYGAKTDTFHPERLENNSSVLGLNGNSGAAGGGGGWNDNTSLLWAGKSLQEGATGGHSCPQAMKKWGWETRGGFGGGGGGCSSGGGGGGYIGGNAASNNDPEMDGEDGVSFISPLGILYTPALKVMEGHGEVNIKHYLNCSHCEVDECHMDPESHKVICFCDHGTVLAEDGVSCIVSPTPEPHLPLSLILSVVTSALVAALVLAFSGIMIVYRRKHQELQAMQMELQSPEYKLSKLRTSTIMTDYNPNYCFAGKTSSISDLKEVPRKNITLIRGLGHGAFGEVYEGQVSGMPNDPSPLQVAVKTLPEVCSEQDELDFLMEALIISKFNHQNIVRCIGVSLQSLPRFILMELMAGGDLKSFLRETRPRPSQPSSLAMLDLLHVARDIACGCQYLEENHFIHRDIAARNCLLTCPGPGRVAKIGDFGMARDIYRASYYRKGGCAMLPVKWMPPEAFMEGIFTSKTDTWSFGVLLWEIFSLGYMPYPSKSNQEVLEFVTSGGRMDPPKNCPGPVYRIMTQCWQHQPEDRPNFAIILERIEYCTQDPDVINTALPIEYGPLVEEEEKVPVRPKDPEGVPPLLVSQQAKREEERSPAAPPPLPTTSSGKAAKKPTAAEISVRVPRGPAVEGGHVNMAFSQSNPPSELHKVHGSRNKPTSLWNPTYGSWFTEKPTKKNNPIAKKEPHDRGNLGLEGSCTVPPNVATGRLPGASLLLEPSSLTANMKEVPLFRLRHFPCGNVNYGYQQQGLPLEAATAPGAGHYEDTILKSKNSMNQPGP
Chain of Fibroblast growth factor receptor 2 (Homo sapiens) (P21802 22-821 limits assumed): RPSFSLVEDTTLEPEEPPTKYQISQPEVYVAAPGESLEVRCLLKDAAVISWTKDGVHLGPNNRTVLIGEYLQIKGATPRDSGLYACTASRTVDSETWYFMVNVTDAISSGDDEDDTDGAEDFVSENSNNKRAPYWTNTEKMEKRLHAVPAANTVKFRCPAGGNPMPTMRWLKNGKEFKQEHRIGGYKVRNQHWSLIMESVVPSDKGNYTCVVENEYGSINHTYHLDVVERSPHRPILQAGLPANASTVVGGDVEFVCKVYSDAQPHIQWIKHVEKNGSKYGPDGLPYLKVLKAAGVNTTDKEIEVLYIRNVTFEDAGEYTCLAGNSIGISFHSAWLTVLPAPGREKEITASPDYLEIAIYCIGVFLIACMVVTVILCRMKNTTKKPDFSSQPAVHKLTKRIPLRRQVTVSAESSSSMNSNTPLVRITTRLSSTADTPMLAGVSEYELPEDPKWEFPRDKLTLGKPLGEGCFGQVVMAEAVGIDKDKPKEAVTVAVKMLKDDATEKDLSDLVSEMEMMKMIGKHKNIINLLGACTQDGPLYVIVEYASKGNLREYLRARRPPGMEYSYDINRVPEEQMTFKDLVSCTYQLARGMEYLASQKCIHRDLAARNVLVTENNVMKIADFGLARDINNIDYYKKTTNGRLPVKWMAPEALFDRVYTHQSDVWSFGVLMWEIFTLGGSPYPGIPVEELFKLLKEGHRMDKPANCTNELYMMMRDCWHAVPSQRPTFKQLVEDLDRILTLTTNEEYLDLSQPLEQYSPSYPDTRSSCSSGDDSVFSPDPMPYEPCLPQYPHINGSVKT

COc1cc2ncnc(N[C@H](C)c3cccc4ccccc34)c2cc1OC
inhibition [1]: 51%
inhibition [2]: 52%
Activity [3]: 83%
Activity [4]: 66%
Activity [5]: 92%
Activity [6]: 75%
Activity [7]: 80%
Activity [8]: 77%
Activity [9]: 96%
Activity [10]: 61%
